# Assays:
# [1] = system: SU-DHL-10; test: CellTiter-Glo cell viability, SU-DHL-10; assay type: cell-based; conditions: Homo sapiens, SU-DHL10
# Experimental: Human DLBCL cell lines SU-DHL-4 (#ACC 495) and SU-DHL-10 (#ACC 576) were obtained from DSMZ (German Collection of Microorganisms and Cell Cultures). The supplier used PCR-based DNA profiling of polymorphic short tandem repeats for authentication and Mycoplasma testing prior to shipment. Cells were cultured in suspension at 37°C in a humidified atmosphere containing 5% CO2. CDK9 inhibitors KB-0742 (MedChemExpress, #HY-137478A), enitociclib, and atuveciclib ([…] Pharma, Inc.) were used. A subset of 35 lymphoma cell lines is from a 500-cell line panel where the effect of enitociclib on cell viability using CellTiter-Glo luminescent cell viability was determined (OmniScreen, CrownBioscience). Genetic status and gene expression level for MYC and MCL1 was obtained from CrownBioscience.
# [2] = system: Myc protein in SU-DHL-10 tumors; test: Pharmacodynamics in SU-DHL-10 xenograft tumors, Myc protein; assay type: in vivo, C.B-17 SCID mice; conditions: single dose; within 4 to 8 hours postdose
# Experimental: The levels of p-Ser2, p-Ser5 and total RNA polymerase II, Myc, Mcl-1, cleaved PARP (cPARP), and cleaved Caspase 3 were assessed by Western blotting and quantified near-infrared detection and background corrected quantification of fluorescence intensity on an Odyssey Imaging System with IRDye secondary antibodies (LI-COR Biosciences). For quantification, the protein levels were normalized to GAPDH or HSP90, expressed as a ratio to DMSO or vehicle control at matched timepoints. The normalized relative protein levels of p-Ser2 were used for a treatment effect comparison by performing an ANOVA using PROC MIXED in SAS. The ANOVA model included treatment, timepoints and their interactions as fixed effects. The least square means (LSM), differences between the LSMs and associated P values were generated. The following primary antibodies were used: Rpb1 NTD (D8L4Y) rabbit antibody [Cell Signaling Technology (CST), #14958], anti-RNA polymerase II subunit B1 (phospho CTD Ser-2, clone 3E10) rat antibody (Merck, 04-1571-I), recombinant anti-c-MYC rabbit antibody (Y69; Abcam, #ab32072), MCL1 (D5V5L) rabbit antibody (CST, #39224), cleaved-PARP (Asp214) (E2T4K) mouse antibody (CST, #32563), HSP90 (C45G5) rabbit antibody (CST, #4877), and GAPDH mouse antibody (Zytomed Systems, #ZYT-RGM2-6C5). […]
# [3] = system: MYC mRNA in whole blood; test: MYC mRNA in whole blood of patients (RNA-seq, PK/PD modeling); assay type: in vivo, human; conditions: for maximum extent of inhibition for MYC mRNA: C1D1, 30 mg; for MYC mRNA downregulation: C1D15, third weekly 30 mg dose; for mean fold change mRNA levels of MYC: after C1D1 dose; for mean fold change mRNA levels of MYC / MYC mRNA fold change: RNA-seq; for MYC mRNA fold change: after C1D15 dose
# Experimental: Total RNA was extracted from blood of patients and cell lines using RNeasy Plus Mini Kit (QIAGEN, #74136) and cDNA prepared with the Maxima First Strand cDNA Synthesis Kit for RT-PCR (Thermo Fisher Scientific, K1642) according to manufacturer's instructions. The integrity of purified total RNA was evaluated using an Agilent 2100 Bioanalyzer system and RNA 6000 Nano Kit (Agilent, #5067-1511). Differential gene expression analysis was performed (Fios Genomics) from RNA-seq data (Discovery Life Sciences). MYC and MCL1 mRNA levels were measured by qPCR in vitro and in vivo, using a Taqman qPCR system (Thermo Fisher Scientific), TaqMan Fast Universal PCR Master Mix (2X) no AmpErase (#4352042) and TaqMan probes for MYC (Hs00153408_m1) and MCL1 (Hs03043899_m1). RNA-seq data were analyzed using DESeq2 ([35]).
# Fifteen patients with refractory or relapsed DH-DLBCL or other MYC+ NHL were treated with enitociclib (30 mg, 21-day cycle, once weekly x3) as a 30-minute intravenous infusion on study days 1, 8, and 15 (NCT02635672). Longitudinal gene expression levels were analyzed by RNA-seq, and enitociclib plasma concentrations were measured using LC/MS-MS. The clinical study protocol was approved by the Institutional Review Board of participating institutions and complied with the Declaration of Helsinki, current Good Clinical Practice guidelines, and local laws and regulations. Written informed consent was provided by all participants prior to the initiation of any study-specific procedure.
# All pharmacokinetic parameters were calculated by noncompartmental methods as described previously ([36]) using WinNonlin v5.3 (Certara LP). Pharmacokinetic/pharmacodynamic modeling was performed using SAAM II v2.3.2 (The Epsilon Group). Pooled pharmacokinetic data from all patients [n = 15 for single dose, cycle 1 day 1 (C1D1) and n = 11 for multiple doses, cycle 1 day 15 (C1D15)] were characterized using a one-compartment model with intravenous dosing. Subsequently, the pharmacokinetic/pharmacodynamic relationship of enitociclib plasma concentrations to MCL1 and MYC mRNA change was characterized using an indirect response model ([37]) on pooled biomarker data where enitociclib concentrations inhibit the formation of MCL1 or MYC mRNA as described by the following equation: […]
# PD is defined as MCL1 or MYC mRNA expression level as a percentage from baseline, t (h) is the time, kin (1/h) is the formation rate of MCL1 or MYC, IC50 (µg/L) is the enitociclib concentration where there is 50% inhibition of PD, kout (h^−1) is the rate constant describing the loss of PD, and n is the hill coefficient. At homeostasis, kin = kout (PD); therefore, kout was replaced by kin/(PD)initial where (PD)initial is equal to 100%. Estimates of pharmacokinetic and pharmacodynamic parameters from pharmacokinetic/pharmacodynamic modeling of pooled data are presented as the estimate followed by CV in parentheses.
# RNA-seq data generated from the analysis of two cell lines treated with the three CDK9 inhibitors was analyzed to investigate the differences in gene expression levels between various posttreatment timepoints and the pretreatment samples. Quality control assessment and exploratory data analysis by principal component analysis (PCA) were done on raw counts and on normalized count data. Normalization of RNA-seq count data was done using trimmed mean of M-values normalization and transformed with voom, resulting in log2 counts per million with associated precision weights. […] Significance values (Padj) were adjusted for multiple testing, by controlling the FDR using the Benjamini–Hochberg procedure. […] RNA-seq data generated from blood samples taken from patients before and after their first dose (C1D1) or after multiple doses, before and after their third dose (C1D15) were analyzed and normalized using the same pipeline as cell lines for comparisons.
smiles,measurement,setting,value
COc1cc(F)ccc1-c1cc(Nc2cc(CS(C)(=N)=O)ccn2)ncc1F (centres unmarked) [enitociclib],IC50,[1],74 nM
same,reduction of Myc protein levels in tumors,[2],50%
same,maximum extent of inhibition for MYC mRNA,"[3]; other MYC+ NHL (n = 5), range 69.9%–90.5%",82.3%
same,maximum extent of inhibition for MYC mRNA,"[3]; patients with DH-DLBCL (n = 10), range 73.6%–94.8%",89.6%
same,MYC mRNA downregulation,"[3]; DH-DLBCL (n = 9), range 96.85%–50%",86.71%
same,MYC mRNA downregulation,"[3]; other MYC+ NHL (n = 3), range 53.7%–86.9%",71.08%
same,mean fold change mRNA levels of MYC,[3]; DH-DLBCL,−3.45 (SD 0.68)
same,MYC mRNA fold change,[3]; DH-DLBCL,−3.38 (SD 1.07)
same,IC50,"[3]; Homo sapiens, PK/PD indirect response model, pooled patient blood data, read-out: model estimated unbound IC50 for MYC mRNA",17.4 to 22 nM
same,mean fold change mRNA levels of MYC,[3]; other MYC+ NHL,−2.61 (SD 0.54)
same,MYC mRNA fold change,[3]; other MYC+ NHL,−1.97 (SD 0.75)
